Data set [1] concerns the target T1, GPR139 (Homo sapiens, UniProt Q6DWJ6).
T1 sequence (Q6DWJ6 1-353): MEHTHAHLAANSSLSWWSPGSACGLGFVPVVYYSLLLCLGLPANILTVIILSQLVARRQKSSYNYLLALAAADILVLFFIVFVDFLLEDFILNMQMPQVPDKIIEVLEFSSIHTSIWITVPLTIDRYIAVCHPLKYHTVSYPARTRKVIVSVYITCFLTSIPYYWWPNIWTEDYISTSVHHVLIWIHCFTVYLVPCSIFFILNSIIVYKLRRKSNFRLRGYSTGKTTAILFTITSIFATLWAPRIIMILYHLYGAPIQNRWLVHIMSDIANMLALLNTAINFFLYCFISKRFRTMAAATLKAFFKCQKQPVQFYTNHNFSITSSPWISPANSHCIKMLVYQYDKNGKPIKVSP
As to the kind of experiment: GPR139 Agonist titration / agonist counterscreen assay (calcium detection, HEK-GPR139 cells). It counts as cell-based. As to conditions: agonist counterscreen of the antagonists; for EC50: scientific notation, molarity, read-out: GRP139 Agonist activity EC50. On the set-up: expressed in transfected cells; host or cells: HEK Aequorin cells, Maxcyte transient transfection. How it is done:
GPR activity was assessed using a calcium detection assay. […] Negative control samples were treated with DMSO. […] Intracellular calcium was measured using Calcium 5.

The next data set has as its system parental HEK cells. Briefly: HEK parental Antagonist Counterscreen Assay (non-transfected cells, acetylcholine control). It counts as cell-based. As to conditions: for EC50: Homo sapiens, HEK293, acetylcholine as control, scientific notation, molarity.
In data set [2] the target is T1, GPR139.
For data set [3], the target named is T1, GPR139. As to the kind of experiment: GPR139 Antagonist titration assay (calcium detection, HEK-GPR139 cells, vs EC80 of S-JNJ-63533054). As to conditions: for GPR139 Antagonist Activity Averaged Max % Response (±St. Dev.): activity relative to known control; for GPR139 Antagonist Activity Hill Slope: fitted dose-response curve; for GPR139 Antagonist Activity Lipophilic Efficiency (logD): based on logD; for GPR139 Antagonist Activity Lipophilic Efficiency (logP): based on logP.

Data set [4] has as its target T1, GPR139. Briefly: [3H]JNJ-63533054 radioligand competition binding assay on membranes of HEK293T/17 cells. Set-up: HA signal peptide (HASP) (N); expressed in transfected cells; host or cells: HEK293T/17 cells (membrane preparation). As to conditions: for inhibition at 10 µM: 10 μM of the indicated compound, (10 μM) JNJ-63533054 as printed in title; for Ki: Ki=IC50/(1+C/Kd), membranes of HEK293T/17 cells expressing human GPR139, read-out: Ki ± SEM. An excerpt: Eighteen compounds were selected for additional study. The compounds were re-synthesized and tested in radioligand binding competition assays for their ability to displace [^3H]-labeled reference agonist JNJ-63533054 on GPR139. The GPR139 construct used (pCDNA3.1-HASP-HA-GPR139) contained an N-terminal HA signal peptide (HASP), followed by an HA tag and human GPR139 (NM_001002911.4). HEK293T/17 cells were maintained in Dulbecco's modified Eagle's medium with 10% (v/v) fetal bovine serum, nonessential amino acids, and 1 mM sodium pyruvate.
Competition binding assay: Radioligand binding assay used human GPR139 expressed in HEK293T/17 cells. HEK293T/17 cells were transfected pCDNA3.1-HASP-HA-GPR139. 48 h after, cells were detached from plates by pipetting with PBS, centrifuged at 500×g for 5 min, and then the fluid was aspirated away. The cell pellets were frozen with liquid nitrogen and stored at −80° C. Pellets were homogenized in TE buffer (50 mM Tris-HCl, pH 7.4, 5 mM EDTA) and centrifuged at 1000×g at 4° C. for 5 min. Supernatant was collected and recentrifuged at 30,000×g at 4° C. for 30 min. The pellet was rehomogenized in TE buffer and incubated for 60 minutes at room temperature with eight concentrations of [^3H]JNJ-63533054 (specific activity 24.7 Ci/mmol) ranging from 0.024 nM to 400 nM. The binding reaction was terminated by filtration through GF/C filter (Waterman) followed by washes with cold TE buffer. Filters were dried in a hood overnight followed by the addition of scintillation fluid. Bound radioactivity was counted on a Hidex 600 liquid scintillation counter. […] Nonspecific binding was determined with 10 μM JNJ-63533054. The Kd values of the radioligands and IC50 of the antagonist were calculated by Graphpad Prism. Ki values were calculated as Ki=IC50/(1+C/Kd), where C is concentration of the radioligand.
Various concentrations of selected ligands were then added in the presence of 10 nM [^3H]-JNJ-63533054 and their ability to displace [^3H]labeling on cellular membranes was assessed. FIGS. 3B and 3C present representative data obtained in these experiments. […] The results of these experiments are presented in the Table 3 and confirm selective binding the compounds to GPR139 thereby validating their interaction with the intended target.
Background: In a radioligand displacement assay an active substance lowers the binding of a labelled ligand.

Like-named read-outs stand apart in the source and are kept apart here.

Usually EC50 stands for the concentration that produces a half-maximal response. For `CC(C)C(=O)N1CCN(c2nc(-c3ccccc3)c3c(c2C#N)CCCC3)CC1` [SR-01000000597], on GPR139 [1], the “GRP139 Agonist activity Averaged Max % Response (±St. Dev.)” value amounted to 3.20 ± 6.96% and the EC50 is over 11.2 µM. Also, the “HEK antagonist activity Averaged Max % Response (±St. Dev.)” value in the data set with parental HEK cells is listed as 14.40 ± 10.68%. For the same compound, at GPR139 [2], the “GPR139 Antagonist Activity Lipophilic Efficiency (logD)” value is recorded as −52.3E−3 and the “GPR139 Antagonist Activity Lipophilic Efficiency (logP)” value is given as −52.4E−3. Also, at GPR139 [3], the “GPR139 Antagonist Activity Ligand Efficiency” value is listed as 0.24, the “GPR139 Antagonist Activity Averaged Max % Response (±St. Dev.)” value was 54.78 ± 3.56% and the “GPR139 Antagonist Activity Hill Slope” value is 1.21.
As to `Cc1cc(C(=O)N/N=C/c2cn(Cc3ccccc3)c3ccccc23)n[nH]1` [SR-01000110742], on GPR139 [1], the “GRP139 Agonist activity Averaged Max % Response (±St. Dev.)” value amounted to 8.07 ± 1.27% and the EC50 was over 14.1 µM. Further, the “HEK antagonist activity Averaged Max % Response (±St. Dev.)” value in the data set with parental HEK cells is 24.28 ± 7.95%. Further, at GPR139 [2], the “GPR139 Antagonist Activity Lipophilic Efficiency (logD)” value is 1.95 and the “GPR139 Antagonist Activity Lipophilic Efficiency (logP)” value is given as 1.94. In addition, on GPR139 [3], the “GPR139 Antagonist Activity Ligand Efficiency” value came to 0.28, the “GPR139 Antagonist Activity Averaged Max % Response (±St. Dev.)” value is listed as 90.37 ± 1.31% and the “GPR139 Antagonist Activity Hill Slope” value stood at 0.68.
For `O=C(Nc1ccccc1C(=O)O)c1ccc(Oc2ccc([N+](=O)[O-])cc2)cc1` [SR-01000201144], on GPR139 [1], the “GRP139 Agonist activity Averaged Max % Response (±St. Dev.)” value was 19.36 ± 5.93% and the half-maximal effective concentration (EC50) was over 14.1 µM. In the data set with parental HEK cells, the “HEK antagonist activity Averaged Max % Response (±St. Dev.)” value stood at 81.74 ± 3.36%. Moreover, at GPR139 [2], the “GPR139 Antagonist Activity Lipophilic Efficiency (logD)” value stood at 4.02 and the “GPR139 Antagonist Activity Lipophilic Efficiency (logP)” value came out at 0.66. Also, on GPR139 [3], the “GPR139 Antagonist Activity Ligand Efficiency” value stood at 0.27, the “GPR139 Antagonist Activity Averaged Max % Response (±St. Dev.)” value was 67.66 ± 7.67% and the “GPR139 Antagonist Activity Hill Slope” value came out at 2.60.
The term inhibition denotes the change of the read-out against control, counted positive when it falls. A high value points to a strong effect. Broadly, the Ki is the dissociation constant of the complex between target and ligand, obtained from inhibition or displacement. Regarding `CCOC(=O)C(CC)Oc1ccc2c(C)c(Cc3ccccc3)c(=O)oc2c1` (stereo not drawn) [SR-01000421299], on GPR139 [1], the “GRP139 Agonist activity Averaged Max % Response (±St. Dev.)” value came to 10.58 ± 2.83% and the EC50 was over 9.8 µM. Further, on GPR139 [4], the inhibition at 10 µM came to 65 ± 3.44% and the Ki amounted to 1.81 ± 0.04 µM. Also, in the data set on parental HEK cells, the “HEK antagonist activity Averaged Max % Response (±St. Dev.)” value is listed as 7.76 ± 14.27% and the concentration giving a half-maximal response (EC50) was over 9.8 µM. In addition, on GPR139 [3], the EC50 came to 7.2 µM, the “GPR139 Antagonist Activity Ligand Efficiency” value turned out to be 0.26, the “GPR139 Antagonist Activity Averaged Max % Response (±St. Dev.)” value is recorded as 74.1 ± 13.55% and the “GPR139 Antagonist Activity Lipophilic Efficiency (logD)” value was found to be 0.17. At GPR139 [3], the “GPR139 Antagonist Activity Lipophilic Efficiency (logP)” value is 0.17 and the “GPR139 Antagonist Activity Hill Slope” value came to 1.98.
For `CC(=O)N1N=C(c2ccc(C)cc2)CC1c1ccccc1Cl` (stereo not drawn) [SR-01000462122], on GPR139 [1], the “GRP139 Agonist activity Averaged Max % Response (±St. Dev.)” value is −2.6E+0 ± 5.95 ^ % and the EC50 is over 16.2 µM. Also, at GPR139 [4], the inhibition at 10 µM is 22 ± 2.59% and the Ki is 13.3 ± 0.3 µM. In the data set on parental HEK cells, the “HEK antagonist activity Averaged Max % Response (±St. Dev.)” value stood at 17.80 ± 3.32% and the EC50 is over 16.2 µM. On GPR139 [3], the EC50 was found to be 8.7 µM, the “GPR139 Antagonist Activity Ligand Efficiency” value is on record as 0.32, the “GPR139 Antagonist Activity Averaged Max % Response (±St. Dev.)” value was 79.69 ± 2.61% and the “GPR139 Antagonist Activity Lipophilic Efficiency (logD)” value is listed as 1.04. Besides, at GPR139 [3], the “GPR139 Antagonist Activity Lipophilic Efficiency (logP)” value was 1.04 and the “GPR139 Antagonist Activity Hill Slope” value turned out to be 1.19.

Values taken from patent US20250099420A1, “SMALL MOLECULE MODULATORS OF GPR139 COMPLEX” (University of Florida Research Foundation, Incorporated, priority 2022, published 2025).
